Assay results as given in US8778966B2, “Quinolinone derivatives as PARP and tank inhibitors” (Janssen Pharmaceutica, NV, priority 2007, dated 2014).

What was measured:
TANK-2 enzyme = target: T1, TANK-2 enzyme (Homo sapiens, UniProt Q9H2K2); test: In vitro Scintillation Proximity Assay (SPA) for TANK-2 inhibitory activity; format: biochemical; settings: read-out: in vitro SPA assay TANK-2 pIC50 (converted)
T1 construct: made in house
T1 sequence (Q9H2K2 1-1166): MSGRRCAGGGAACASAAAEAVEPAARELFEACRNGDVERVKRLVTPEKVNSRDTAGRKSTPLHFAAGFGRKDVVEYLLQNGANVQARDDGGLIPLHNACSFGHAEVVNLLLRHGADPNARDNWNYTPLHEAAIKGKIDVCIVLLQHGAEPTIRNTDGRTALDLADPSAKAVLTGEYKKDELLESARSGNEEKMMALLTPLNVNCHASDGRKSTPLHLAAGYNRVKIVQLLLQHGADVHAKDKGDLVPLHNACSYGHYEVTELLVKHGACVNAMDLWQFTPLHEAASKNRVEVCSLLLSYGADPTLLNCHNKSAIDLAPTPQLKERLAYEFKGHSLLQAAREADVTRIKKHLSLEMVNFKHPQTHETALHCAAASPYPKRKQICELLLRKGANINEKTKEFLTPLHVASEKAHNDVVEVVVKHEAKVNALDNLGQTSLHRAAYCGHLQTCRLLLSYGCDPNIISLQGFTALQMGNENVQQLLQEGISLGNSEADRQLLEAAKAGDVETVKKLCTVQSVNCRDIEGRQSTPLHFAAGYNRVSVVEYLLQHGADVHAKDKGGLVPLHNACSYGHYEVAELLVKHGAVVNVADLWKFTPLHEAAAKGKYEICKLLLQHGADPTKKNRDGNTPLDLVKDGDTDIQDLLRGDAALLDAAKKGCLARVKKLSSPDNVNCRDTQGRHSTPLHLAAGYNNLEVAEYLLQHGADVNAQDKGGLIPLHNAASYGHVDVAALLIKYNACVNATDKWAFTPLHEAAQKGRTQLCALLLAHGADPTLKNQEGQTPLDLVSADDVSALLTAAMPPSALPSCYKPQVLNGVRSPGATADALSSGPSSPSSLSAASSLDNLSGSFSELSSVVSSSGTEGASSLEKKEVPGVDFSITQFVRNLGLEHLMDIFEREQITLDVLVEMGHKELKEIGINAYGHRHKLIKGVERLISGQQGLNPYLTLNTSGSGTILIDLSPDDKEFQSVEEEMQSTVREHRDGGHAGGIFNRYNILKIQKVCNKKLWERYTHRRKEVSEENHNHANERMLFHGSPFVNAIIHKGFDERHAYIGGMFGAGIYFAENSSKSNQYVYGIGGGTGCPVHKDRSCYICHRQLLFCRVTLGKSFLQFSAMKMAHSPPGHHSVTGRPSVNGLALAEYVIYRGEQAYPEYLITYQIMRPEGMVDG
Method in brief: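 Results are pIC50 values, with IC50 interpolated linearly around 50% of blank-subtracted control cpm. They come from a scintillation proximity read of TANK-2 (8 μg/ml) self-modification with [3H]-NAD+/NAD, incubated 120 min at room temperature in pH 7.4 Tris buffer containing MgCl2 and DTT. Compounds were first screened at 10^−5 M.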

tubulin = test: Tubulin polymerization assay; format: biochemical; set-up: key: a compound showing 0 to 50% inhibition at 20 μM is reported as score 1; Score 2 compounds are defined as compound showing more than 50% inhibition at 20 μM and less than 50% inhibition at 5 μM; a compound showing more than 50% inhibition at 5 μM is reported as score 3; settings: tested at 20 μM and 5 μM
Method in brief: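 Cytoskeleton kit tubulin was run in a 10 µl final volume at 37 °C, with fluorescence read every minute for 1 h. Polymerization was taken as the maximum slope (4-point linear regression) and expressed as % of no-compound control. Compounds were tested at 20 µM, then at 5 µM if inhibition exceeded 50%, and scored by % inhibition.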

Row | SMILES | IC50 (TANK-2 enzyme) | melting point | tubulin polymerisation score (tubulin)
1 | CCc1cc2ccc(C(C)(C#N)Cc3cccc(C#N)n3)cc2[nH]c1=O (single isomer, unassigned) [Compound 206] | 50.1 nM | 121 °C | 1 (a compound showing 0 to 50% inhibition at 20 μM is reported as score 1)
2 | CCc1cc2ccc(C(C)(C#N)Cc3cccc(C#N)n3)cc2[nH]c1=O (single isomer, unassigned) [Compound 207] | 31.6 nM | 133 °C | 3 (a compound showing more than 50% inhibition at 5 μM is reported as score 3)
3 | C#Cc1cccc(C[C@@](C)(C#N)c2ccc3cc(CC)c(=O)[nH]c3c2)c1 [Compound 3] | 501 nM | 128 °C | 2
4 | CCc1cc2ccc(C(C#N)(CC)Cc3ccccc3)cc2[nH]c1=O (stereo not shown) [Compound 32] | 79.4 nM | 198 °C | 1 (a compound showing 0 to 50% inhibition at 20 μM is reported as score 1)
5 | COc1ccccc1-c1nc(CC(C)(C#N)c2ccc3cc(C)c(=O)[nH]c3c2)no1 (stereo not shown) [Compound 33] | 158 nM | 130 °C | 1 (a compound showing 0 to 50% inhibition at 20 μM is reported as score 1)
6 | Cc1cc2ccc(C(C)(C#N)Cc3cccc(Cl)c3)cc2[nH]c1=O (stereo not shown) [Compound 37] | 79.4 nM | 242 °C | 1 (a compound showing 0 to 50% inhibition at 20 μM is reported as score 1)
7 | CCc1cc2ccc(C(C)(C#N)Cc3cccc(CCC#N)c3)cc2[nH]c1=O (stereo not shown) [Compound 169] | 398 nM | 149 °C | 
8 | C=Cc1cccc(CC(C)(C#N)c2ccc3cc(CC)c(=O)[nH]c3c2)c1 (stereo not shown) [Compound 172] | 794 nM | 130 °C | 
9 | CCc1c(C)c2ccc(C(C)(C#N)Cc3cccc(C#N)c3)cc2[nH]c1=O (stereo not shown) [Compound 181] | 158 nM | 204 °C | 
10 | CCc1cc2cc(OCCOC)c(C(C)(C#N)Cc3cccc(C#N)c3)cc2[nH]c1=O (stereo not shown) [Compound 182] | 31.6 nM | 130 °C | 
11 | CCc1cc2ccc(C(C)(C#N)Cc3cccc(C#CCO)c3)cc2[nH]c1=O (stereo not shown) [Compound 183] | 794 nM | 182 °C | 
12 | CCc1cc2ccc(C(F)(C#N)Cc3ccccc3)cc2[nH]c1=O (stereo not shown) [Compound 187] | 316 nM | 176 °C | 
13 | CCc1cc2ccc(C(C)(C#N)CN(C)Cc3ccccc3)cc2[nH]c1=O (stereo not shown) [Compound 189] | 2510 nM | 136 °C | 
14 | CCc1cc2ccc(C(C)(C#N)C(C)c3ccccc3)cc2[nH]c1=O (stereo not shown) [Compound 198] | 794 nM | 198 °C | 
15 | CCc1cc2ccc(C(C)(C#N)Cc3cccc(I)n3)cc2[nH]c1=O (stereo not shown) [Compound 214] | 50.1 nM | 131 °C | 
16 | CCOC(=O)c1cccc(CC(C)(C#N)c2ccc3cc(CC)c(=O)[nH]c3c2)n1 (stereo not shown) [Compound 215] | 2000 nM | 60 °C | 
17 | CCc1cc2ccc(C(C)(C#N)Cc3cccc(CN)n3)cc2[nH]c1=O (stereo not shown) [Compound 221] | 251 nM | 65 °C | 

More lines, main results first:

Row | IC50 (TANK-2 enzyme) | melting point | SMILES | tubulin polymerisation score (tubulin)
18 | 398 nM | 125 °C | C#Cc1cccc(C[C@](C)(C#N)c2ccc3cc(CC)c(=O)[nH]c3c2)c1 [Compound 2] | 1 (a compound showing 0 to 50% inhibition at 20 μM is reported as score 1)
19 | 200 nM | 226 °C | Cc1cc2ccc([C@](C)(C#N)Cc3cccc(C#N)c3)cc2[nH]c1=O [Compound 36] | 1 (a compound showing 0 to 50% inhibition at 20 μM is reported as score 1)
20 | 316 nM | 194 °C | CC(=O)c1cc2ccc(C(C)(C#N)Cc3ccccc3)cc2[nH]c1=O (stereo not shown) [Compound 39] | 
21 | 100 nM | 202 °C | CCc1cc2cc(F)c(C(C)(C#N)Cc3cccc(C#N)c3)cc2[nH]c1=O (stereo not shown) [Compound 175] | 
22 | 1260 nM | 250 °C | CCc1cc2ccc([C@](C)(C#N)[C@@H](C)c3ccccc3)cc2[nH]c1=O [Compound 199] | 
23 | 398 nM | 140 °C | C#Cc1cccc(CC(C)(C#N)c2ccc3cc(CC)c(=O)[nH]c3c2)n1 (stereo not shown) [Compound 211] | 
24 | 126 nM | 115 °C | CCc1cc2ccc(C(C)(C#N)Cc3cccc(N(C)C)n3)cc2[nH]c1=O (stereo not shown) [Compound 213] | 
25 | 1260 nM | 153 °C | CCc1cc2ccc(C(C)(C#N)Cc3cccc(COC)n3)cc2[nH]c1=O (stereo not shown) [Compound 216] | 
